Measurements from ChEMBL document CHEMBL5291721, “A preclinical secondary pharmacology resource illuminates target-adverse drug reaction associations of marketed drugs” (Nat Commun, 2023).

How the values were obtained:
[1] = molecular target: Acetylcholinesterase (Homo sapiens, UniProt P22303); assay type: functional
[2] = molecular target: T1, Alpha-2C adrenergic receptor (Homo sapiens, UniProt P18825); assay type: functional
T1 sequence (P18825 whole entry): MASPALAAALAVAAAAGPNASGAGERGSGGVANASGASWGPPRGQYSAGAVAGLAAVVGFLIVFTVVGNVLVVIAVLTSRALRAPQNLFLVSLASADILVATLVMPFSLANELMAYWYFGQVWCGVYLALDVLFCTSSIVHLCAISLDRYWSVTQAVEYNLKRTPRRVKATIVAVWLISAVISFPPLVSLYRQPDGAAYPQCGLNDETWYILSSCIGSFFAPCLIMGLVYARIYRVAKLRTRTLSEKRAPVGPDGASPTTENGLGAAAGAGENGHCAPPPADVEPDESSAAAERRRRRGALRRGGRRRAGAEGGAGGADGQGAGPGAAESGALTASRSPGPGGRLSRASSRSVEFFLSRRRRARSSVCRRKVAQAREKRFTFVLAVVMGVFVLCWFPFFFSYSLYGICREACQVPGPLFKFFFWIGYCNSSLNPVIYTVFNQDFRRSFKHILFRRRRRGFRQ
Also: assay procedure not described here.

Chain of Acetylcholinesterase (P22303 whole entry): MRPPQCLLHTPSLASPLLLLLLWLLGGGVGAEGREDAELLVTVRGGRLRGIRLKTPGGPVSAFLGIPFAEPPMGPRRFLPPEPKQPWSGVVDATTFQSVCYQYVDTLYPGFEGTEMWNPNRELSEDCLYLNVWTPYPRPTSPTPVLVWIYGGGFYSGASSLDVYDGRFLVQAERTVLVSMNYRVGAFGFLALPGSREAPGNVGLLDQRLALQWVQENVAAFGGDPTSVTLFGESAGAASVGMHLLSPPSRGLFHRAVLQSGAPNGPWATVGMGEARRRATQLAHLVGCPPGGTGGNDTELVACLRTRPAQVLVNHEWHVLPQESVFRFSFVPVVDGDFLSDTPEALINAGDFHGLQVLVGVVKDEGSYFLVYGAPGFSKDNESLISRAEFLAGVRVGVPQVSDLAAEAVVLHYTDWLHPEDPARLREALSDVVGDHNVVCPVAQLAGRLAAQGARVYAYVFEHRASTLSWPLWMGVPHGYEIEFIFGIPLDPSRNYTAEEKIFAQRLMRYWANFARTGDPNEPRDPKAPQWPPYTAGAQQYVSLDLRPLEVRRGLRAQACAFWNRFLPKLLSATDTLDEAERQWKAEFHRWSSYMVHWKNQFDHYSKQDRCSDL

AC50 [2] [µM] | Structure (SMILES) | AC50 [1] [µM]
– | C=CC(=O)N1CCC[C@@H](n2nc(-c3ccc(Oc4ccccc4)cc3)c3c(N)ncnc32)C1 [IBRUTINIB] | > 30
– | CN1C[C@H](CNC(=O)OCc2ccccc2)C[C@@H]2c3cccc4c3c(cn4C)C[C@H]21 [METERGOLINE] | 1.1
9.3 | Cc1[nH]cnc1CN1CCc2c(c3ccccc3n2C)C1=O [ALOSETRON] | –
